Data published in patent US12037324B2, “Biarylmethyl heterocycles” (Université de Montréal, priority 2016, dated 2024).
Like-named read-outs stand apart in the source and are kept apart here.

Columns and labels:
hAT1R [1] = biological target: T1, hAT1R (Homo sapiens, UniProt P30556); experiment: BRET β-arrestin2 biosensor assay, higher receptor expression (hAT1R 5 ng/well), HEK293 cells; assay type: cell-based; conditions: for EC50: High AT1R Expression
T1 sequence (P30556 1-359): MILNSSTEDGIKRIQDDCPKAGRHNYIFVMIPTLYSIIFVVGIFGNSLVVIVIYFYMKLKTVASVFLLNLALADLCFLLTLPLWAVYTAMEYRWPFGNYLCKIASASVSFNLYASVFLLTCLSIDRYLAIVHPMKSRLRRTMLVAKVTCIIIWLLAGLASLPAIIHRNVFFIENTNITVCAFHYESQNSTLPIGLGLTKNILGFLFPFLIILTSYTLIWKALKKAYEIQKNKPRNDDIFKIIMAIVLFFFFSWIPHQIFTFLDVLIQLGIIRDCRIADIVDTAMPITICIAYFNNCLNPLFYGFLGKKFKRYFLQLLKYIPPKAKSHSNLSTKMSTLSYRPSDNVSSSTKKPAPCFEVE

AGTR1 = biological target: T2, AGTR1 (Homo sapiens, UniProt P30556); experiment: DiscoveRx β-arrestin2 recruitment assay (enzyme complementation, Pathunter CHO-K1 AGTR1 β-arrestin cell line); assay type: cell-based
T2 construct: host or cells: Pathunter CHO-K1 AGTR1 β-arrestin cell line (CHO-K1)
T2 sequence (P30556 1-359): T1 sequence (P30556 1-359)
Summary of the method: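 Chemiluminescent enzyme-complementation read-out of β-arrestin2 recruitment to AGTR1 in engineered CHO-K1 cells after 90 min compound exposure at 37° C. Values are 4-parameter logistic EC50s in agonist mode, IC50s in antagonist mode, with efficacy relative to the maximal All response.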

hAT1R [2] = biological target: T1, hAT1R; experiment: BRET Gq biosensor assay, agonist response, HEK293 cells; assay type: cell-based; conditions: section of the 42nd table directly before the BRET P63 section
Summary of the method: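 Agonist EC50 derived from a 4-parameter fit of BRET2 ratio (GFP 515 nm/Rluc 410 nm), scaled between unstimulated control and maximal AngII response. Readings taken 5 min after compound addition at room temperature, with 2 μM coelenterazine, in HEK293 cells expressing hAT1R, Gαq-Rluc, Gβ1 and GFP-Gγ1 (transfected two days earlier).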

hAT1R [3] = biological target: T1, hAT1R; experiment: cell-based; conditions: agonist mode; read-out: BRET P63 EC50
[4] = DiscoveRx β-arrestin2 recruitment
[5] = DiscoveRx β-arrestin2 recruitment, maximal response

Row | SMILES | BRET β-Arrestin2 High AT1R Expression Ymax (%) (hAT1R [1]) | EC50 (hAT1R [1]) | EC50 (AGTR1; [4]) | DiscoveRx β-arrestin2 Ymax (%) (AGTR1; [5]) | EC50 (hAT1R [2]) | EC50 (hAT1R [3]) | DiscoveRx β-arrestin2 Ymax (%) (AGTR1; [4]) | EC50 (AGTR1)
1 | CCCCC(=O)N(Cc1ccc(-c2cc(-c3ccccn3)ccc2-c2nn[nH]n2)cc1)C1(C(=O)O)CCCCC1 [Example 293, 1-(N-((5′-(Pyridin-2-yl)-2′-(2H-tetrazol-5-yl)-[1,1′-biphenyl]-4-yl)methyl)pentanamido)cyclohexanecarboxylic acid] | 70.2% | 136 nM | 187 nM | 40.4% | 1240 nM | > 100000 nM | – | –
2 | CCCCc1ncc(C(=O)NCCO)n1Cc1ccc(-c2cc(-c3ccccc3)ccc2C(=O)O)cc1 [Example 414] | 36.4% | 505 nM | 166 nM | 21.5% | 460 nM | – | – | –
3 | CCCCc1ncc(C(=O)O)n1Cc1ccc(-c2cc(-c3ccccc3)ccc2C(=O)O)cc1 [Example 415] | 26.8% | 206 nM | 111 nM | 29.3% | 487 nM | – | – | –
4 | CCCCc1nc(Cl)c(C(=O)O)n1Cc1ccc(-c2cc(N3CCCC(F)(F)C3)ccc2-c2nn[nH]n2)cc1 [Example 416, 2-butyl-4-chloro-1-((5′-(3,3-difluoropiperidin-1-yl)-2′-(2H-tetrazol-5-yl)-[1,1′-biphenyl]-4-yl)methyl)-1H-imidazole-5-carboxylic acid] | 69.0% | 115 nM | 18 nM | 29.5% | > 100000 nM | – | – | –
5 | CCCCc1nc(Cl)c(C(=O)O)n1Cc1ccc(-c2cc(-c3cccc(C(F)F)n3)ccc2-c2nn[nH]n2)cc1 [Example 423, 2-butyl-4-chloro-1-((5′-(6-(difluoromethyl)pyridin-2-yl)-2′-(2H-tetrazol-5-yl)-[1,1′-biphenyl]-4-yl)methyl)-1H-imidazole-5-carboxylic acid] | 73.3% | 26 nM | 22.9 nM | 22.8% | 25.4 nM | – | – | –
6 | CCCCC(=O)N(Cc1ccc(-c2cc(-c3ccccc3)ccc2-c2nn[nH]n2)nc1)[C@H](C(=O)O)C(C)C [Example 430] | 78.9% | 70.4 nM | 33.2 nM | – | 275 nM | – | 55.2% | –
7 | CCCCC(=O)N(Cc1ccc(-c2cc(-c3ccccc3)ccc2-c2nn[nH]n2)cn1)[C@H](C(=O)O)C(C)C [Example 431] | 92.7% | 1590 nM | 194 nM | – | 910 nM | – | 26.0% | –
8 | CCCC(=O)N(Cc1ccc(-c2cc(-c3ccccc3)ccc2-c2nn[nH]n2)nc1)[C@H](C(=O)O)C(C)C [Example 432] | 88.4% | 163 nM | 40.1 nM | – | 286 nM | – | 42.9% | –
9 | CC(C)CCC(=O)N(Cc1ccc(-c2cc(-c3ccccc3)ccc2-c2nn[nH]n2)nc1)[C@H](C(=O)O)C(C)C [Example 433] | 92.4% | 115 nM | 59.1 nM | – | 581 nM | – | 49.6% | –
10 | CCCCC(=O)N(Cc1ccc(-c2cc(-c3ccccc3)ccc2-c2noc(=O)[nH]2)nc1)[C@H](C(=O)O)C(C)C [Example 434, (S)-3-Methyl-2-(N-((6-(4-(5-oxo-4,5-dihydro-1,2,4-oxadiazol-3-yl)-[1,1′-biphenyl]-3-yl)pyridin-3-yl)methyl)pentanamido)butanoic acid 2,2,2-trifluoroacetate] | 96.6% | 316 nM | 72 nM | – | 1280 nM | – | 40.9% | –
11 | CCCCC(=O)N(Cc1ccc(-c2cc(Oc3ccccc3)ccc2-c2nn[nH]n2)cc1)[C@H](C(=O)O)C(C)C [Example 435, (S)-3-Methyl-2-(N-((5′-phenoxy-2′-(2H-tetrazol-5-yl)-[1,1′-biphenyl]-4-yl)methyl)pentanamido)butanoic acid] | 12.3% | 305 nM | 1410 nM | – | > 100000 nM | – | 19.1% | –
12 | CCCCC(=O)N(Cc1ccc(-c2cc(Oc3cccnc3)ccc2-c2nn[nH]n2)cc1)[C@H](C(=O)O)C(C)C [Example 436] | 58.0% | 13600 nM | 993 nM | – | > 100000 nM | – | 31.2% | –
13 | CCCCC(=O)N(Cc1ccc(-c2cc(Oc3cccc(OC(F)(F)F)c3)ccc2-c2nn[nH]n2)cc1)[C@H](C(=O)O)C(C)C [Example 437] | 16.4% | 168 nM | 3920 nM | – | > 100000 nM | – | 26.4% | –
14 | CCCCC(=O)N(Cc1ccc(-c2cc(-c3cc(F)cc(F)c3)ccc2-c2nn[nH]n2)cc1)[C@H](C(=O)O)C(C)C [Example 438, (S)-2-(N-((3″,5″-Difluoro-6′-(2H-tetrazol-5-yl)-[1,1′:3′,1″-terphenyl]-4-yl)methyl)pentanamido)-3-methylbutanoic acid] | 74.6% | 34.8 nM | 20.4 nM | – | 718 nM | – | 41.7% | –
15 | CCCCC(=O)N(Cc1ccc(-c2cc(-c3cccnc3OC)ccc2-c2nn[nH]n2)cc1)[C@H](C(=O)O)C(C)C [Example 439] | 35.8% | 117 nM | 108 nM | – | 386 nM | – | 26.4% | –
16 | CCCCC(=O)N(Cc1ccc(-c2cc(-c3ccc(NC(C)=O)cc3)ccc2-c2nn[nH]n2)cc1)[C@H](C(=O)O)C(C)C [Example 440] | 50.1% | 28300 nM | 241 nM | – | 582 nM | – | 13.6% | –
17 | CCCCC(=O)N(Cc1ccc(-c2cc(-c3ccc4ncccc4c3)ccc2-c2nn[nH]n2)cc1)[C@H](C(=O)O)C(C)C [Example 441] | 64.3% | 57 nM | 101 nM | – | > 100000 nM | – | 39.3% | –
18 | CCCCC(=O)N(Cc1ccc(-c2cc(-c3cnn(C)c3)ccc2-c2nn[nH]n2)cc1)[C@H](C(=O)O)C(C)C [Example 442] | 17.2% | 303 nM | 105 nM | – | > 100000 nM | – | 10.9% | –
19 | CCCCC(=O)N(Cc1ccc(-c2cc(N3CC(C)(C)c4ccccc43)ccc2-c2nn[nH]n2)cc1)[C@H](C(=O)O)C(C)C [Example 450] | 77.6% | 308 nM | 479 nM | – | 5260 nM | – | 23.1% | > 100000 nM
20 | CCCCC1=NC2(CCCC2)C(=O)N1Cc1ccc(-c2cc(-c3ccccc3)ccc2-c2nn[nH]n2)nc1 [Example 451, 3-((6-(4-(1H-Tetrazol-5-yl)-[1,1′-biphenyl]-3-yl)pyridin-3-yl)methyl)-2-butyl-1,3-diazaspiro[4.4]non-1-en-4-one] | 44.8% | 13700 nM | 23.3 nM | – | 4110 nM | – | 11.4% | –
21 | CCCCC1=NC2(CCCC2)C(=O)N1Cc1ccc(-c2cc(-c3ccccc3)ccc2-c2nn[nH]n2)cn1 [Example 452, 3-((5-(4-(2H-Tetrazol-5-yl)-[1,1′-biphenyl]-3-yl)pyridin-2-yl)methyl)-2-butyl-1,3-diazaspiro[4.4]non-1-en-4-one] | 84.6% | 33.8 nM | 8.1 nM | – | 44.8 nM | – | 36.1% | –
22 | CCCCC1=NC2(CCCC2)C(=O)N1Cc1ccc(-c2cc(-c3ccccc3)ccc2-c2noc(=O)[nH]2)cn1 [Example 453, 3-(3-(6-((2-Butyl-4-oxo-1,3-diazaspiro[4.4]non-1-en-3-yl)methyl)pyridin-3-yl)-[1,1′-biphenyl]-4-yl)-1,2,4-oxadiazol-5(4H)-one] | 95.9% | 13 nM | 31.4 nM | – | 24 nM | – | 59.5% | –
23 | CCCCC1=NC2(CCCC2)C(=O)N1Cc1ccc(-c2cc(Oc3ccccc3)ccc2-c2nnn[nH]2)cc1 [Example 454, 2-Butyl-3-((5′-phenoxy-2′-(1H-tetrazol-5-yl)-[1,1′-biphenyl]-4-yl)methyl)-1,3-diazaspiro[4.4]non-1-en-4-one] | 18.4% | 56.2 nM | 22.7 nM | – | > 100000 nM | – | 11.2% | –
